US8623832B2, “Peptide compositions that bind TLR-4” (The Board of Regents of the University of Oklahoma, priority 2011, dated 2014)

Experiments:
JAWS II dendritic cells = assay: LPS-induced TNF-α release by JAWS II dendritic cells (ELISA); type: cell-based, mouse; conditions: for LPS-induced TNF-α secretion, pre-LPS model: peptide 1 or 10 μM 1 hour prior to LPS 75 ng/ml, total 5 hours; for LPS-induced TNF-α, mean values: post-LPS model
Procedure: JAWS II dendritic cell culture: The JAWS II dendritic cell line is an immortalized cell line derived from bone marrow of C57BL/6 mice (ATCC, Manassas, Va.). The cells were maintained in Alpha-modified minimum essential medium (Sigma, St Louis, Mo.) supplemented with 20% fetal bovine serum (FBS), 4 mM L-glutamine, 100 U/ml penicillin, 100 μg/ml streptomycin, 50 μg/ml gentamicin (Invitrogen, Grand Island, N.Y.) and 5 ng/ml of recombinant murine granulocyte macrophage-colony stimulating factor (Peprotech, Rocky Hill, N.J.). (Awasthi et al., 2005). The culture medium was replaced with fresh medium every 48 h.
The JAWS II dendritic cells (1 million) were treated with SP-A peptides (1 or 10 μM) with or without E. coli derived LPS (75 ng/ml, highly purified, low protein, Calbiochem, CA). In order to observe the anti-inflammatory properties of the SP-A peptides, the cells were treated with peptides for 1 hour prior to addition of LPS (pre-LPS treatment) or after 4 hours incubation with LPS (Post-LPS treatment). The incubation was continued for a total period of 5 hours. Control cells were treated with vehicle, LPS (75 ng/ml), and/or SP-A peptides (1 and 10 μM) for a period of 5 hours. The cell-free supernatants were collected and stored at −80° C. for further analysis.
Cytokine (TNF-α) measurement: The TNF-α levels were measured in cell-free supernatants of JAWS II dendritic cells treated with LPS with or without SP-A peptides by enzyme linked immunosorbent assay (ELISA) as described earlier (Awasthi and Cox, 2003).

[1] = test system: primary adult baboon lung DCs and fetal baboon lung DC-precursor cells; assay: TNF-α secretion against E. coli by baboon lung DCs (ELISA); type: cell-based; conditions: 3 hours phagocytosis reaction; protein added alone
Procedure: After confirming that the fluorescence is of phagocytosed bioparticles, comprehensive experiments were performed in presence and absence of effector molecules (SP-A and TLR4-MD2 proteins). The cells were pulsed with purified, native baboon lung SP-A and recombinant human TLR4-MD2 or MD2 proteins (RnD Systems, MN) for an hour prior to phagocytosis assay with pHrodo-conjugated, heat-killed E. coli K12 bioparticles (Invitrogen-Molecular Probes, CA). MD2 protein was also included, because SP-A is known to interact with MD2, and it was questioned if MD2 can influence the immune functions of DC-population. The assay was performed in serum-free Opti-MEM medium (Invitrogen, CA), as described by the manufacturer (Invitrogen-Molecular Probes, CA). The assay mixtures were incubated for another 3 hours at 37° C. in 5% CO2 incubator. The fluorescence readings were taken at 550 nm excitation and 600 nm emission wavelengths using SpectraMax M2 spectrofluorometer (Molecular Devices, CA).
Cytokine (TNF-α) measurement: The TNF-α levels were measured in cell-free supernatants by enzyme linked immunosorbent assay (ELISA) using a commercially available kit (eBioscience, CA), as per the manufacturer's instructions. Briefly, the microwells of a 96 well plate were coated with diluted purified anti-human TNF-α antibody. The wells were washed, and nonspecific sites were blocked. Diluted recombinant human TNF-α (7.8-500 pg/ml standard) and cell-free-supernatant (1:10) were added to the antibody-coated wells, and the plate was incubated overnight at 4° C. The next day, the plate was washed and incubated with biotin-conjugated anti-human TNF-α antibody followed by avidin-horseradish peroxidase and substrate solution. The reaction was stopped by adding 2 N H2SO4 and read at 450 nm (Molecular Devices, CA).

[2] = test system: primary adult baboon lung DCs and fetal baboon lung DC-precursor cells; assay: Phagocytosis of pHrodo-labeled E. coli bioparticles by primary baboon lung DCs / fetal DC-precursor cells; type: cell-based; conditions: SP-A 2 μM, TLR4-MD2 0.3 μM
Procedure: Freshly collected lobe of the lung or whole lung samples of adult and fetal baboons were transported on ice in RPMI 1640 medium containing 2 mM glutamine, 1 mM HEPES, 10 μg/ml gentamicin, 100 U/ml penicillin, 100 μg/ml streptomycin and 10% FBS. After a mild mechanical disruption, the single cell suspension was seeded in a tissue culture flask (Nalge-Nunc International Corp, NY) at a density of 30-50×10^6 leukocytes/175 cm^2 flask in RPMI 1640 medium containing 2 mM glutamine, 1 mM HEPES, 10 μg/ml gentamicin, 100 U/ml penicillin, 100 μg/ml streptomycin and 10% FBS. The light-density DC-populations were harvested using OptiPrep cell-separation solution (density 1.32 g/ml, Accurate Chemicals, NY) (Awasthi and Cooper, 2006; Awasthi et al., 2009). The immunophenotype and basic characteristics of the lung DC-population isolated from fetal and adult baboons have been described earlier (Awasthi et al., 2009). Here, first the immunophenotype of KG-1-derived DCs and fetal baboon lung DC-precursors or adult baboon lung DCs were compared by flow cytometry. Briefly, cells were suspended in Dulbecco's phosphate buffered saline (DPBS) containing 1% FBS and 0.09% sodium azide and incubated with fluorochrome-conjugated antibodies to HLA-DP, DQ, DR, CD11c, CD40, CD80, CD86 (typical DC-markers) as described earlier.
(§1) After confirming that the fluorescence is of phagocytosed bioparticles, comprehensive experiments were performed in presence and absence of effector molecules (SP-A and TLR4-MD2 proteins). […] The fluorescence readings were taken at 550 nm excitation and 600 nm emission wavelengths using SpectraMax M2 spectrofluorometer (Molecular Devices, CA).
(§2) The phagocytosis index was calculated by subtracting the average fluorescence intensity of the reaction with bioparticles alone from the control (basal without any effector molecules) and experimental wells. Finally, the percent effect was calculated using the following formula: % effect=(Net experimental phagocytosis/Net basal phagocytosis)×100%

KG-1-derived DCs = assay: Phagocytosis of pHrodo-labeled E. coli bioparticles by KG-1-derived DCs; type: cell-based, human; conditions: MD2 alone 0.02-0.2 μM
Source text: Phagocytosis assay: In this Example, pHrodo-conjugated, heat-killed E. coli K12 (encapsulated) bioparticles (Invitrogen-Molecular Probes, CA) were employed. The pHrodo-fluorescent label offers an advantage over other conventional methods, in that it fluoresces only in acidic conditions (i.e., after the bioparticles are taken inside the intracellular lysosomes) (Invitrogen-Molecular Probes, CA). To ensure that the fluorescence relates to phagocytosed pHrodo-conjugated E. coli bioparticles only, the phagocytosis reaction mix was imaged by confocal microscopy. […]
as §1, §2

SPA2: 20-mer synthetic peptide derived from the C-terminal Carbohydrate Recognition Domain of human SP-A (PAGRGKEQCVEMYTDGQWND; listed as Homo sapiens)
LPS-induced TNF-α secretion, pre-LPS model (JAWS II dendritic cells): slight increase

SPA3: 20-mer synthetic peptide derived from the C-terminal Carbohydrate Recognition Domain of human SP-A (VNYTNWYRGEPAGRGKEQCV; listed as Homo sapiens)
LPS-induced TNF-α secretion, pre-LPS model (JAWS II dendritic cells): slight increase

SPA5: 20-mer synthetic peptide from C-terminal CRD of human SP-A; contains the first 10 amino acids of the SPA4 peptide (YVGLTEGPSPGDFRYSDGTP; listed as Homo sapiens)
secretion of TNF-α, post-LPS model (JAWS II dendritic cells; peptide added after 4 hours LPS 75 ng/ml, both 1 and 10 μM): inhibited the secretion of TNF-α
LPS-induced TNF-α, mean values (JAWS II dendritic cells; 1 μM peptide): 8284 pg/mL
LPS-induced TNF-α, mean values (JAWS II dendritic cells; 10 μM peptide): 6319 pg/mL

SPA7: 20-mer synthetic peptide derived from the C-terminal Carbohydrate Recognition Domain of human SP-A (SLQGSIMTVGEKVFSSNGQS; listed as Homo sapiens)
LPS-induced TNF-α secretion, pre-LPS model (JAWS II dendritic cells): slight increase

TLR4-MD2: soluble mixture of recombinant human TLR4 extracellular domain and MD2 proteins (R&D Systems) [reference compound]
secretion of TNF-α by DCs in response to E. coli [1]: increased the TNF-α secretion significantly
phagocytic uptake of E. coli [2]: increased

B1: MD2: recombinant human MD-2 protein, adaptor molecule for TLR4 (R&D Systems) (protein, listed as Homo sapiens)
chain: MLPFLFFSTLFSSIFTEAQKQYWVCNSSDASISYTYCDKMQYPISINVNPCIELKGSKGLLHIFYIPRRDLKQLYFNLYITVNTMNLPKRKEVICRGSDDDYSFCRALKGETVNTTISFSFKGIKFSKGKYKCVVEAISGSPEEMLFCLEFVILHQPNSN
effect on phagocytosis of E. coli bioparticles (KG-1-derived DCs): did not affect the phagocytosis
